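Each compound was tested at five concentrations against cells in 96-well plates for 48 hours. At the TGI there is no net growth.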
Legend:
Assay in all cases: NCI tumour cell line growth inhibition, 48 h
UACC-257 melanoma = tested on: UACC-257 melanoma
HCC-2998 colon = tested on: HCC-2998 colon
MCF7 breast = tested on: MCF7 breast
NCI-H460 lung = tested on: NCI-H460 lung
K-562 leukemia = tested on: K-562 leukemia
SK-MEL-28 melanoma = tested on: SK-MEL-28 melanoma
SF-268 CNS = tested on: SF-268 CNS
SK-MEL-5 melanoma = tested on: SK-MEL-5 melanoma
HCT-116 colon = tested on: HCT-116 colon
HS 578T breast = tested on: HS 578T breast
OVCAR-4 ovarian = tested on: OVCAR-4 ovarian
786-0 renal = tested on: 786-0 renal
NCI-H226 lung = tested on: NCI-H226 lung
UACC-62 melanoma = tested on: UACC-62 melanoma
TK-10 renal = tested on: TK-10 renal
U251 CNS = tested on: U251 CNS
CCRF-CEM leukemia = tested on: CCRF-CEM leukemia
BT-549 breast = tested on: BT-549 breast
HT29 colon = tested on: HT29 colon
SNB-19 CNS = tested on: SNB-19 CNS
KM12 colon = tested on: KM12 colon
MDA-MB-231 breast = tested on: MDA-MB-231 breast
NCI/ADR-RES ovarian = tested on: NCI/ADR-RES ovarian
IGROV1 ovarian = tested on: IGROV1 ovarian
M14 melanoma = tested on: M14 melanoma
OVCAR-5 ovarian = tested on: OVCAR-5 ovarian
OVCAR-3 ovarian = tested on: OVCAR-3 ovarian
MDA-N = tested on: MDA-N
OVCAR-8 ovarian = tested on: OVCAR-8 ovarian
MALME-3M melanoma = tested on: MALME-3M melanoma
SK-OV-3 ovarian = tested on: SK-OV-3 ovarian
SF-539 CNS = tested on: SF-539 CNS
EKVX NSCLC = tested on: EKVX NSCLC
NCI-H522 lung = tested on: NCI-H522 lung
HOP-62 NSCLC = tested on: HOP-62 NSCLC
NCI-H23 lung = tested on: NCI-H23 lung
UO-31 renal = tested on: UO-31 renal
COLO 205 colon = tested on: COLO 205 colon
CAKI-1 renal = tested on: CAKI-1 renal
LOX IMVI melanoma = tested on: LOX IMVI melanoma
MOLT-4 leukemia = tested on: MOLT-4 leukemia
SW-620 colon = tested on: SW-620 colon
PC-3 prostate = tested on: PC-3 prostate
SK-MEL-2 melanoma = tested on: SK-MEL-2 melanoma
RXF 393 renal = tested on: RXF 393 renal
RPMI-8226 leukemia = tested on: RPMI-8226 leukemia
SNB-75 CNS = tested on: SNB-75 CNS
T-47D breast = tested on: T-47D breast
ACHN renal = tested on: ACHN renal
HOP-92 NSCLC = tested on: HOP-92 NSCLC
A498 renal = tested on: A498 renal
SN12C renal = tested on: SN12C renal
SF-295 CNS = tested on: SF-295 CNS
HCT-15 colon = tested on: HCT-15 colon
DU-145 prostate = tested on: DU-145 prostate
MDA-MB-435 = tested on: MDA-MB-435
HL-60(TB) leukemia = tested on: HL-60(TB) leukemia
SR leukemia = tested on: SR leukemia
A549 NSCLC = tested on: A549 NSCLC

## C[C@H](CCC1=NCCN1)[C@H]1CC[C@H]2[C@@H]3CC[C@@H]4C[C@H](O)CC[C@]4(C)[C@H]3C[C@H](O)[C@]12C
UACC-257 melanoma
  TGI: 28.7 µM
HCC-2998 colon
  TGI: 27.6 µM
MCF7 breast
  TGI: 28.5 µM
NCI-H460 lung
  TGI: 31.2 µM
K-562 leukemia
  TGI: 21 µM
SK-MEL-28 melanoma
  TGI: 34.6 µM
SF-268 CNS
  TGI: 20.5 µM
SK-MEL-5 melanoma
  TGI: 24.5 µM
HCT-116 colon
  TGI: > 100 µM
HS 578T breast
  TGI: 27.8 µM
OVCAR-4 ovarian
  TGI: 33.6 µM
786-0 renal
  TGI: 33 µM
NCI-H226 lung
  TGI: 31 µM
UACC-62 melanoma
  TGI: 26.3 µM
TK-10 renal
  TGI: 26.9 µM
U251 CNS
  TGI: 23.7 µM
CCRF-CEM leukemia
  TGI: 30.4 µM
BT-549 breast
  TGI: 33.1 µM
HT29 colon
  TGI: 22.3 µM
SNB-19 CNS
  TGI: 21 µM
KM12 colon
  TGI: 24.1 µM
MDA-MB-231 breast
  TGI: 34 µM
NCI/ADR-RES ovarian
  TGI: > 100 µM
IGROV1 ovarian
  TGI: 21.9 µM
M14 melanoma
  TGI: 35.6 µM
OVCAR-5 ovarian
  TGI: 28.1 µM
OVCAR-3 ovarian
  TGI: 24.5 µM
MDA-N
  TGI: 31 µM
OVCAR-8 ovarian
  TGI: 28.8 µM
MALME-3M melanoma
  TGI: 27.9 µM
SK-OV-3 ovarian
  TGI: 31.9 µM
SF-539 CNS
  TGI: 29.5 µM
EKVX NSCLC
  TGI: 34.4 µM
NCI-H522 lung
  TGI: 19.3 µM
HOP-62 NSCLC
  TGI: 28.9 µM
NCI-H23 lung
  TGI: 27 µM
UO-31 renal
  TGI: 52.6 µM
COLO 205 colon
  TGI: 23.8 µM
CAKI-1 renal
  TGI: 43.8 µM
LOX IMVI melanoma
  TGI: 29.3 µM
MOLT-4 leukemia
  TGI: 16.1 µM
SW-620 colon
  TGI: 44.6 µM
PC-3 prostate
  TGI: 20.7 µM
SK-MEL-2 melanoma
  TGI: 26.7 µM
RXF 393 renal
  TGI: 35.9 µM
RPMI-8226 leukemia
  TGI: 30 µM
SNB-75 CNS
  TGI: 13.5 µM
T-47D breast
  TGI: 30.6 µM
ACHN renal
  TGI: 30.5 µM
HOP-92 NSCLC
  TGI: 30.9 µM
A498 renal
  TGI: 65.1 µM
SN12C renal
  TGI: 34 µM
SF-295 CNS
  TGI: 29 µM
HCT-15 colon
  TGI: > 100 µM
DU-145 prostate
  TGI: 28.9 µM
MDA-MB-435
  TGI: 28.9 µM
HL-60(TB) leukemia
  TGI: 36 µM

## CC(=N\N=C\c1ccccn1)/C(C)=N/N=C(C)/C(C)=N/N=C(C)/C(C)=N/N=C/c1ccccn1
UACC-257 melanoma
  TGI: > 100 µM
HCC-2998 colon
  TGI: > 100 µM
MCF7 breast
  TGI: > 100 µM
NCI-H460 lung
  TGI: > 100 µM
K-562 leukemia
  TGI: > 100 µM
SK-MEL-28 melanoma
  TGI: > 100 µM
SF-268 CNS
  TGI: > 100 µM
SK-MEL-5 melanoma
  TGI: > 100 µM
HCT-116 colon
  TGI: > 100 µM
HS 578T breast
  TGI: > 100 µM
OVCAR-4 ovarian
  TGI: > 100 µM
786-0 renal
  TGI: > 100 µM
NCI-H226 lung
  TGI: > 100 µM
TK-10 renal
  TGI: > 100 µM
U251 CNS
  TGI: > 100 µM
CCRF-CEM leukemia
  TGI: > 100 µM
BT-549 breast
  TGI: > 100 µM
HT29 colon
  TGI: > 100 µM
SNB-19 CNS
  TGI: > 100 µM
KM12 colon
  TGI: > 100 µM
MDA-MB-231 breast
  TGI: > 100 µM
NCI/ADR-RES ovarian
  TGI: > 100 µM
IGROV1 ovarian
  TGI: > 100 µM
M14 melanoma
  TGI: > 100 µM
OVCAR-5 ovarian
  TGI: > 100 µM
OVCAR-3 ovarian
  TGI: > 100 µM
SR leukemia
  TGI: > 100 µM
MDA-N
  TGI: > 100 µM
OVCAR-8 ovarian
  TGI: > 100 µM
MALME-3M melanoma
  TGI: > 100 µM
SK-OV-3 ovarian
  TGI: > 100 µM
SF-539 CNS
  TGI: > 100 µM
EKVX NSCLC
  TGI: > 100 µM
NCI-H522 lung
  TGI: > 100 µM
HOP-62 NSCLC
  TGI: > 100 µM
NCI-H23 lung
  TGI: > 100 µM
UO-31 renal
  TGI: > 100 µM
COLO 205 colon
  TGI: > 100 µM
A549 NSCLC
  TGI: > 100 µM
CAKI-1 renal
  TGI: > 100 µM
LOX IMVI melanoma
  TGI: > 100 µM
MOLT-4 leukemia
  TGI: > 100 µM
SW-620 colon
  TGI: > 100 µM
PC-3 prostate
  TGI: > 100 µM
SK-MEL-2 melanoma
  TGI: > 100 µM
RXF 393 renal
  TGI: > 100 µM
RPMI-8226 leukemia
  TGI: > 100 µM
SNB-75 CNS
  TGI: > 100 µM
T-47D breast
  TGI: > 100 µM
ACHN renal
  TGI: > 100 µM
HOP-92 NSCLC
  TGI: > 100 µM
A498 renal
  TGI: > 100 µM
SN12C renal
  TGI: > 100 µM
SF-295 CNS
  TGI: > 100 µM
HCT-15 colon
  TGI: > 100 µM
DU-145 prostate
  TGI: > 100 µM
MDA-MB-435
  TGI: > 100 µM
HL-60(TB) leukemia
  TGI: > 100 µM

From PubChem BioAssay (NCI)
